Drawing on patent US9018214B2, “Bicyclic heterocycle compounds and their uses in therapy” (Astex Therapeutics Limited, priority 2011, dated 2015), this text covers inhibition, EC50 and IC50 for 14 molecules.

For experiment [1], the target named is BIR3 domain of human cIAP-1 (residues 267-363) (Homo sapiens (Human), UniProt Q13490). Kind of experiment: cIAP-1 in vitro competitive displacement binding assay (fluorescence polarization; Probe A AVPIK(5&6FAM)-amide or Probe B AbuRPFK(5&6FAM)-amide). Conditions: for inhibition at […]: 3 h, read-out: IC50 or PI cIAP1: PI. On the technique in general: Polarisation of emitted light reports the rotation of a fluorescent probe.

In experiment [2] the test system is EVSA-T (human breast carcinoma). Kind of experiment: Anti-proliferative activity, Alamar Blue assay, EVSA-T. The class given is cell-based. Particulars: Homo sapiens, EVSA-T, read-out: EVSA-T prolif (EC50). (Alamar Blue is a resazurin reagent that responds to reducing activity.)
Experiment [3] concerns the target BIR3 domain of human XIAP (residues 252-350) (Homo sapiens (Human), UniProt P98170). Kind of experiment: XIAP in vitro competitive displacement binding assay (fluorescence polarization). Conditions: for IC50: read-out: IC50 or PI Xiap: IC50; for inhibition at 0.04 µM: 1 h, read-out: IC50 or PI Xiap: PI.
Where [4] appears, read: Probe B AbuRPFK(5&6FAM)-amide, read-out: IC50 or PI cIAP1: IC50.
[5] abbreviates: read-out: IC50 or PI cIAP1: IC50.

Each structure is given as a SMILES string. Counter-ions that a name gives are not always drawn. Like-named read-outs stand apart in the source and are kept apart here. Where only a bound is given, the exact number is not on record here.

As usually defined, the EC50 is the concentration needed to bring the measured effect to its halfway point. In general, IC50 refers to the concentration that inhibits the measured activity by half.

In the case of `C[C@@H]1CN(CC(=O)N2CC(C)(C)c3cnc(Cc4ccc(F)cc4F)cc32)[C@@H](CN2CC[C@@H](F)C2)CN1` [Example 203, 1-{6-[(2,4-Difluorophenyl)methyl]-3,3-dimethyl-1H,2H,3H-pyrrolo[3,2-c]pyridin-1-yl}-2-[(2R,5R)-2-{[(3R)-3-fluoropyrrolidin-1-yl]methyl}-5-methylpiperazin-1-yl]ethan-1-one dihydrochloride], the inhibition at […] in experiment [1] was 97%. Further, the EC50 in experiment [2] (72 h) stood at 3.2 nM. Also, in experiment [3], the IC50 is 73 nM.

Turning to `C[C@@H]1CN(CC(=O)N2CC(C)(C)c3ncc(C(F)(F)CC4CC4)cc32)[C@@H](CN2CCCC2=O)CN1` [Example 230, 1-{[(2R,5R)-1-{2-[6-(2-Cyclopropyl-1,1-difluoroethyl)-3,3-dimethyl-1H,2H,3H-pyrrolo[3,2-b]pyridin-1-yl]-2-oxoethyl}-5-methylpiperazin-2-yl]methyl}pyrrolidin-2-one formate], the inhibition at […] in experiment [1] was 60%. In addition, the EC50 in experiment [2] (72 hours, Alamar Blue) was determined as 110 nM. The inhibition at 0.04 µM in experiment [3] was determined as 53%.

With `C[C@@H]1CN(CC(=O)N2CC(C)(C)c3cnc(Oc4ccccc4Cl)cc32)[C@@H](CN2CCOC2=O)CN1` [Example 189, 3-{[(2R,5R)-1-{2-[6-(2-Chlorophenoxy)-3,3-dimethyl-1H,2H,3H-pyrrolo[3,2-c]pyridin-1-yl]-2-oxoethyl}-5-methylpiperazin-2-yl]methyl}-1,3-oxazolidin-2-one hydrochloride], the IC50 in experiment [1] (setting [4]) turned out to be 14 nM. Moreover, the EC50 in experiment [2] (72 hours, Alamar Blue) is 190 nM. Also, the inhibition at 0.04 µM in experiment [3] (@ 0.04 μM) is 70%.

For `C[C@@H]1CN(CC(=O)N2CC(C)(C)c3cnc(Cc4ccc(F)cc4F)cc32)[C@@H](CN2CCOC2=O)CN1` [Example 209, 3-{[(2R,5R)-1-(2-{6-[(2,4-Difluorophenyl)methyl]-3,3-dimethyl-1H,2H,3H-pyrrolo[3,2-c]pyridin-1-yl}-2-oxoethyl)-5-methylpiperazin-2-yl]methyl}-1,3-oxazolidin-2-one dihydrochloride], the inhibition at […] in experiment [1] is 90%. The EC50 in experiment [2] (72 h) came out at 19 nM. Moreover, the IC50 in experiment [3] was found to be 47 nM.

As to `C[C@@H]1CN(CC(=O)N2CC(C)(C)c3cnc(Cc4ccc(F)cc4F)cc32)[C@@H](CN2CC[C@H](F)C2)CN1` [Example 202, 1-{6-[(2,4-Difluorophenyl)methyl]-3,3-dimethyl-1H,2H,3H-pyrrolo[3,2-c]pyridin-1-yl}-2-[(2R,5R)-2-{[(3S)-3-fluoropyrrolidin-1-yl]methyl}-5-methylpiperazin-1-yl]ethan-1-one diydrochloride], in experiment [1] (Probe B, @ 0.012 μM), the inhibition at […] was found to be 88%. Also, the EC50 in experiment [2] (72 h) amounted to 2.1 nM. Further, the IC50 in experiment [3] amounted to 77 nM.

On to `CCC(F)(F)c1cc2c(cn1)C(C)(C)CN2C(=O)CN1C[C@@H](C)NC[C@@H]1CN1CCCC1=O` [Example 198, 1-{[(2R,5R)-1-{2-[6-(1,1-Difluoropropyl)-3,3-dimethyl-1H,2H,3H-pyrrolo[3,2-c]pyridin-1-yl]-2-oxoethyl}-5-methylpiperazin-2-yl]methyl}pyrrolidin-2-one], for which the IC50 was less than 1000 nM in experiment [1] and 23 nM in experiment [1] (setting [4]). The EC50 in experiment [2] (72 hours, Alamar Blue) was determined as 880 nM. In addition, the inhibition at 0.04 µM in experiment [3] (@ 0.04 μM) worked out at 69%.

With `CC[C@@H]1COCCN1C[C@H]1CN[C@H](C)CN1CC(=O)N1CC(C)(C)c2ncc(C(F)(F)CC)cc21` [Example 255, 1-[6-(1,1-Difluoropropyl)-3,3-dimethyl-1H,2H,3H-pyrrolo[3,2-b]pyridin-1-yl]-2-[(2R,5R)-2-{[(3R)-3-ethylmorpholin-4-yl]methyl}-5-methylpiperazin-1-yl]ethan-1-one dihydrochloride], the figures for the 50% inhibitory concentration (IC50) in experiment [1] and in experiment [1] (setting [5]) were less than 1000 nM and 14 nM, respectively. For the same molecule, the EC50 in experiment [2] (72 h) amounted to 32 nM. For the same molecule, the inhibition at 0.04 µM in experiment [3] amounted to 49%.

Consider `COC[C@H]1CN[C@H](C)CN1CC(=O)N1CC(C)(C)c2cnc(C3CCCCC3)cc21` [Example 118, 1-{6-Cyclohexyl-3,3-dimethyl-1H,2H,3H-pyrrolo[3,2-c]pyridin-1-yl}-2-[(2R,5R)-2-(methoxymethyl)-5-methylpiperazin-1-yl]ethan-1-one dihydrochloride], for which the IC50 in experiment [1] (setting [5]) was found to be 240 nM; in experiment [3] it was 710 nM. For the same molecule, the concentration giving a half-maximal response (EC50) in experiment [2] (72 h) was 3400 nM.

In the case of `C[C@@H]1CN(CC(=O)N2CC(C)(C)c3cnc(Cc4ccc(F)cc4)cc32)[C@@H](CN2CCOC[C@H]2C)CN1` [Example 251, 1-{6-[(4-Fluorophenyl)methyl]-3,3-dimethyl-1H,2H,3H-pyrrolo[3,2-c]pyridin-1-yl}-2-[(2R,5R)-5-methyl-2-{[(3R)-3-methylmorpholin-4-yl]methyl}piperazin-1-yl]ethan-1-one dihydrochloride], the inhibition at […] in experiment [1] came to 99%. Besides, the EC50 in experiment [2] (72 hours, Alamar Blue) was determined as 0.65 nM. Besides, the inhibition at 0.04 µM in experiment [3] amounted to 68%.

For `CCC(F)(F)c1cc2c(cn1)C(C)(C)CN2C(=O)CN1C[C@@H](C)NC[C@@H]1CN1CC[C@@H](F)C1` [Example 214, 1-[6-(1,1-Difluoropropyl)-3,3-dimethyl-1H,2H,3H-pyrrolo[3,2-c]pyridin-1-yl]-2-[(2R,5R)-2-{[(3R)-3-fluoropyrrolidin-1-yl]methyl]-5-methylpiperazin-1-yl]ethan-1-one hydrochloride], the IC50 in experiment [1] was less than 1000 nM; in experiment [1] (setting [4]), 24 nM; in experiment [3] it was 82 nM. Moreover, the EC50 in experiment [2] (72 hours, Alamar Blue) is 190 nM.

In the case of `COC[C@H]1CN[C@H](C)CN1CC(=O)N1CC2(CN(C(C)=O)C2)c2ccc(Cc3ccccc3)cc21` [Example 76, 1-{1-Acetyl-6′-benzyl-1′,2′-dihydrospiro[azetidine-3,3′-indole]-1′-yl}-2-[(2R,5R)-2-(methoxymethyl)-5-methylpiperazin-1-yl]ethan-1-one hydrochloride salt], the IC50 was 16 nM in experiment [1] (setting [4]) and 64 nM in experiment [3]. In addition, in experiment [2] (72 hours, Alamar Blue), the EC50 was determined as 780 nM.

In the case of `CC[C@H]1CN[C@H](C)CN1CC(=O)N1CC(C)(C)c2cnc(Cc3ccccc3)cc21` [Example 91, 1-{6-Benzyl-3,3-dimethyl-1H,2H,3H-pyrrolo[3,2-c]pyridin-1-yl}-2-[(2S,5R)-2-ethyl-5-methylpiperazin-1-yl]ethan-1-one, hydrochloride salt], the IC50 in experiment [1] (setting [4]) worked out at 19 nM; in experiment [3] it was 290 nM. In addition, in experiment [2] (72 hours, Alamar Blue), the EC50 stood at 200 nM.

As for `Cc1cnn(C[C@H]2CN[C@H](C)CN2CC(=O)N2CC(C)(C)c3cnc(C(F)(F)c4ccccc4)cc32)c1` [Example 159, 1-{6-[Difluoro(phenyl)methyl]-3,3-dimethyl-1H,2H,3H-pyrrolo[3,2-c]pyridin-1-yl}-2-[(2R,5R)-5-methyl-2-[(4-methyl-1H-pyrazol-1-yl)methyl]piperazin-1-yl]ethan-1-one dihydrochloride], in experiment [1], the inhibition at […] is 72%. Besides, the EC50 in experiment [2] (72 hours, Alamar Blue) was found to be 120 nM. Besides, in experiment [3], the inhibition at 0.04 µM came to 56%.

Take `CCCC(F)(F)c1cnc2c(c1)N(C(=O)CN1C[C@@H](C)NC[C@@H]1CN1C[C@@H](C)O[C@@H](C)C1)CC2(C)C` [Example 246, 1-[6-(1,1-Difluorobutyl)-3,3-dimethyl-1H,2H,3H-pyrrolo[3,2-b]pyridin-1-yl]-2-[(2R,5R)-2-{[(2R,6S)-2,6-dimethylmorpholin-4-yl]methyl}-5-methylpiperazin-1-yl]ethan-1-one dihydrochloride]: in experiment [1], the inhibition at […] stood at 76%. The concentration giving a half-maximal response (EC50) in experiment [2] (72 h) is 31 nM. In addition, the half-maximal inhibitory concentration (IC50) in experiment [3] is 43 nM.
